Marks after values point to notes of the source that are not given here.
Experiments:
AM25-6 = experiment: Antibiotic sensitivity of AM25-6 by the drug sensitive paper method; format: cell-based, Anaerofustis stercorihominis; conditions: antibiotic susceptibility papers on AM25-6 plates, 37° C., 48 hours
Experimental: The sensitivity of AM25-6 to 20 common antibiotics was tested by the drug sensitive paper method. 100 μl of AM25-6 bacterial solution cultured to the logarithmic phase was spread plated. Antibiotic susceptibility papers (purchased from Hangzhou Microbial Reagent Co. LTD) were affixed on the medium surface of plates, cultured at 37° C. for 48 hours, after which the size of inhibition zone was measured.

[1] = test system: T2D mice model (C57bL/6 mice); experiment: T2D animal model, fasting blood glucose; format: in vivo
Experimental: (§1) The T2D animal model is constructed by using C57bL/6 mice (purchased from Guangdong Medical Experimental Animal Center) at 8 weeks old and 20±2 g of body weight. The mice were housed in a specific pathogen free (SPF) environment and adaptively fed for 1 week, followed by grouping and modeling. The T2D animal model is induced by injection of streptozotocin (STZ) along with feeding high-fat feed, and the mice having fasting blood glucose (FBG) reaching to 10 mM/L can be used as a T2D mice model. Fifty mice selected for experiments are randomly divided into 5 groups.
(§2) Bacterial agent group 1: the T2D mice model was administered with the AM25-6 bacterial solution (1×10^8 cfu/ml) by gavage;
(§3) Bacterial agent group 2: the T2D mice model was administered with the DSM 17244 bacterial solution (1×10^8 cfu/ml) by gavage;
(§4) Bacterial agent group 3: the T2D mice model was administered with the DSM 28733 bacterial solution (1×10^8 cfu/ml) by gavage;
(§5) Metformin treatment group: the T2D mice model was treated with the positive drug metformin.
(§6) The experiment was carried out based on the different groups. After the construction of T2D mice model (i.e., FBG>10), the treatment was started and lasted for 2 months. The food intake amount and body weight of mice were recorded daily. Blood of mice was collected from the tail vein every week for detection of fasting blood glucose. The oral glucose tolerance test (OGTT) of mice was measured at week 4 of treatment and at the end of the experiment.

[2] = test system: T2D mice model (C57bL/6 mice); experiment: T2D animal model (STZ plus high-fat feed), body weight; format: in vivo; conditions: gavage
Experimental: as §1, §2, §3, §4, §5, §6

[3] = test system: T2D mice model (C57bL/6 mice); experiment: T2D animal model, oral glucose tolerance test (OGTT); format: in vivo
Experimental: as §1, §6
The results of oral glucose tolerance test (OGTT) for mice shown in Table 8 indicate that the blood glucose of mice reaches the highest level (i.e., 17.8-23.1 mmol/L) at 30 minutes upon administration of glucose by gavage. […] From the perspective of overall glucose tolerance process, it can be seen that Anaerofustis stercorihominis can effectively ameliorate glucose intolerance in diabetic mice.

For `NCC[C@H](O)C(=O)N[C@@H]1C[C@H](N)[C@@H](O[C@H]2O[C@H](CN)[C@@H](O)[C@H](O)[C@H]2O)[C@H](O)[C@H]1O[C@H]1O[C@H](CO)[C@@H](O)[C@H](N)[C@H]1O` [Amikacin], which “Diameter of inhibition zone” value (AM25-6) is on record?
Its value is 1.5 cm.

Which “Diameter of inhibition zone” value (AM25-6) does the source give for `CC1(C)S[C@@H]2[C@H](NC(=O)[C@H](N)c3ccccc3)C(=O)N2[C@H]1C(=O)O` [Ampicillin] here?
The value was greater than 4.0 cm.

With `CC1(C)S[C@@H]2[C@H](NC(=O)C(C(=O)O)c3ccccc3)C(=O)N2[C@H]1C(=O)O` (some centres unmarked) [Carbenicillin] as the molecule, how does the “Diameter of inhibition zone” value (AM25-6) read?
Its value is greater than 4.0 cm.

For `CC1=C(C(=O)O)N2C(=O)[C@@H](NC(=O)[C@H](N)c3ccccc3)[C@H]2SC1` [Cefalexin], which “Diameter of inhibition zone” value (AM25-6) is on record?
Its value is 2.0 cm.

For `Cc1nnc(SCC2=C(C(=O)O)N3C(=O)[C@@H](NC(=O)Cn4cnnn4)[C@H]3SC2)s1` [Cefazolin], which “Diameter of inhibition zone” value (AM25-6) is on record?
The value was 2.6 cm.

How did the “Diameter of inhibition zone” value (AM25-6) turn out when `CCN1CCN(C(=O)N[C@@H](C(=O)N[C@@H]2C(=O)N3C(C(=O)O)=C(CSc4nnnn4C)CS[C@H]23)c2ccc(O)cc2)C(=O)C1=O` [Cefoperazone] was run?
The value was greater than 4.0 cm.

`CC1=C(C(=O)O)N2C(=O)[C@@H](NC(=O)[C@H](N)C3=CCC=CC3)[C@H]2SC1` [Cefradine] was tested. Which “Diameter of inhibition zone” value (AM25-6) did it give?
The value was 2.0 cm.

`CO/N=C(\C(=O)N[C@@H]1C(=O)N2C(C(=O)O)=C(CSc3nc(=O)c(=O)[nH]n3C)CS[C@H]12)c1csc(N)n1` [Ceftriaxone Sodium] was tested. Which “Diameter of inhibition zone” value (AM25-6) did it give?
Its value is greater than 4.0 cm.

How did the “Diameter of inhibition zone” value (AM25-6) turn out when `CO/N=C(\C(=O)N[C@@H]1C(=O)N2C(C(=O)O)=C(COC(N)=O)CS[C@H]12)c1ccco1` [Cefuroxime] was run?
The value was 3.0 cm.

`C[C@H]1c2cccc(O)c2C(=O)C2=C(O)[C@]3(O)C(=O)C(C(N)=O)=C(O)[C@@H](N(C)C)[C@@H]3[C@@H](O)[C@@H]21` [Doxycycline] was tested. Which “Diameter of inhibition zone” value (AM25-6) did it give?
The value was 2.0 cm.

How did the “Diameter of inhibition zone” value (AM25-6) turn out when `CC[C@H]1OC(=O)[C@H](C)[C@@H](O[C@H]2C[C@@](C)(OC)[C@@H](O)[C@H](C)O2)[C@H](C)[C@@H](O[C@@H]2O[C@H](C)C[C@H](N(C)C)[C@H]2O)[C@](C)(O)C[C@@H](C)C(=O)[C@H](C)[C@@H](O)[C@]1(C)O` [Erythromycin] was run?
The value was 2.0 cm.

For `CC(C)(O/N=C(\C(=O)N[C@@H]1C(=O)N2C(C(=O)[O-])=C(C[n+]3ccccc3)CS[C@H]12)c1csc(N)n1)C(=O)O` [Fortum (Ceftazidime), Ceftazidime], which “Diameter of inhibition zone” value (AM25-6) is on record?
The value was greater than 4.0 cm.

With `NC[C@H]1O[C@H](O[C@H]2[C@H](O)[C@@H](O[C@H]3O[C@H](CO)[C@@H](O)[C@H](N)[C@H]3O)[C@H](N)C[C@@H]2N)[C@H](O)[C@@H](O)[C@@H]1O` [Kanamycin] as the molecule, how does the “Diameter of inhibition zone” value (AM25-6) read?
The value was 1.8 cm.

With `CN(C)C(=N)N=C(N)N` [Metformin, metformin, reference compound] as the molecule, how does the “Fasting blood glucose, Week 1” value ([1]; Week 1) read?
Its value is 16.8 mmol/L.

What about the “Fasting blood glucose, Week 3” value ([1]; Week 3) of the same molecule?
Its value is 16.2 mmol/L.

What about the “Fasting blood glucose, Week 5” value ([1]; Week 5) of the same molecule?
The value was 13.9 mmol/L.

And the “Fasting blood glucose, Week 7” value ([1]; Week 7)?
Its value is 11.5* mmol/L.

And the “Fasting blood glucose, Week 9” value ([1]; Week 9)?
The value was 10.1** mmol/L.

What about the Body weight ([2]; Week 1) of the same molecule?
Its Body weight is 20.33 g.

What about the Body weight ([2]; Week 3) of the same molecule?
Its Body weight is 22.36 g.

And the Body weight ([2]; Week 5)?
The Body weight was 24.63 g.

What about the Body weight ([2]; Week 7) of the same molecule?
The Body weight was 25.86 g.

What about the Body weight ([2]; Week 9, *P<0.05 relative to model group) of the same molecule?
The Body weight was 26.53* g.

And the “Blood glucose in OGTT, 0 minute” value ([3]; 0 minute after glucose by gavage)?
Its value is 9.3 mmol/L.

What about the “Blood glucose in OGTT, 30 minutes” value ([3]; 30 minutes after glucose by gavage) of the same molecule?
Its value is 18.6 mmol/L.

What about the “Blood glucose in OGTT, 60 minutes” value ([3]; 60 minutes after glucose by gavage) of the same molecule?
Its value is 16.4 mmol/L.

And the “Blood glucose in OGTT, 90 minutes” value ([3]; 90 minutes after glucose by gavage)?
Its value is 11.7* mmol/L.

What about the “Blood glucose in OGTT, 120 minutes” value ([3]; 120 minutes after glucose by gavage) of the same molecule?
Its value is 10.3 mmol/L.

For `CN(C)c1ccc(O)c2c1C[C@H]1C[C@H]3[C@H](N(C)C)C(O)=C(C(N)=O)C(=O)[C@@]3(O)C(O)=C1C2=O` [Minocin (Minocycline), Minocycline], which “Diameter of inhibition zone” value (AM25-6) is on record?
The value was 2.6 cm.

`Cc1onc(-c2ccccc2)c1C(=O)N[C@@H]1C(=O)N2[C@@H]1SC(C)(C)[C@@H]2C(=O)O` [Oxacillin] was tested. Which “Diameter of inhibition zone” value (AM25-6) did it give?
The value was 1.0 cm.

With `CCN1CCN(C(=O)N[C@@H](C(=O)N[C@@H]2C(=O)N3[C@@H]2SC(C)(C)[C@@H]3C(=O)O)c2ccccc2)C(=O)C1=O` [Piperacillin] as the molecule, how does the “Diameter of inhibition zone” value (AM25-6) read?
Its value is 3.0 cm.

Which “Diameter of inhibition zone” value (AM25-6) does the source give for `CN(C)[C@@H]1C(O)=C(C(N)=O)C(=O)[C@@]2(O)C(O)=C3C(=O)c4c(O)cccc4[C@@](C)(O)[C@H]3C[C@@H]12` [Tetracycline] here?
The value was 0.9 cm.

With Gentamicin as the molecule, how does the “Diameter of inhibition zone” value (AM25-6) read?
The value was 2.0 cm.

With Neomycin as the molecule, how does the “Diameter of inhibition zone” value (AM25-6) read?
Its value is 1.0 cm.

For Penicillin, which “Diameter of inhibition zone” value (AM25-6) is on record?
The value was 3.0 cm.

Source: patent publication US11903981B2, “Use of Anaerofustis stercorihominis in preventing and/or treating metabolic diseases” (priority 2018, dated 2024)
